Laboratory results taken from patent publication US12478605B2, “Biochanin a derivatives for treatment of BEST1-related retinopathies” (Universität Regensburg, priority 2020, dated 2025).

Target: T1, mutant BEST1 R218C (Homo sapiens, UniProt O76090, R218C)
T1 construct: expressed in transfected cells
T1 sequence (O76090 1-585 R218C): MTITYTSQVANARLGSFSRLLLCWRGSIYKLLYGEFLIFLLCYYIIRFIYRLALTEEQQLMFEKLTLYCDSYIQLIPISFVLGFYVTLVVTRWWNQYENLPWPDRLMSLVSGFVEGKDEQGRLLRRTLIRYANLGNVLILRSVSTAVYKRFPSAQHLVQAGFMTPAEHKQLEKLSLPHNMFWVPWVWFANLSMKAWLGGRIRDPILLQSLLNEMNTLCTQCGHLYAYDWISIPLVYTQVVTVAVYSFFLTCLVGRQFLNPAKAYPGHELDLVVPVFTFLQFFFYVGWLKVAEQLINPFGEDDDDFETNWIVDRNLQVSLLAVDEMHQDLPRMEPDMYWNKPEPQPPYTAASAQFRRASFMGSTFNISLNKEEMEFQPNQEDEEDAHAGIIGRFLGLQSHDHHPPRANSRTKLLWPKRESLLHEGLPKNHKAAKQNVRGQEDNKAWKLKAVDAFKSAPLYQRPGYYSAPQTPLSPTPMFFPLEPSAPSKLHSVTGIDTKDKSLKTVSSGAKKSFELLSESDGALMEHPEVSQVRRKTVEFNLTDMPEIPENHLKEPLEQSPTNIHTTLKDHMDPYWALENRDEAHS
Assay: YFP-based I- efflux assay in MDCKII cells co-expressing YFP and mutant BEST1 R218C
Type: cell-based
Details: 5 μM, compound addition for 24 h, FIGS. 6-8
Method: MDCKII cells co-expressing yellow fluorescence protein (YFP) and mutant BEST1 R218C were seeded on black 96-well plates and cultivated for 6 days to achieve polarity, a crucial requirement for correct basolateral localization of BEST1 in epithelial cells. Compounds were tested at 5 μM concentration in a 96-well format. After compound addition for 24 h, cells were subjected to an outwardly directed iodid (I^−)-gradient to drive BEST1-mediated I^− efflux and produce increasing fluorescence signals. Each assay consisted of recording of YFP quenching after I^− pre-incubation for 6 min (=100% value), followed by 7 min of recording of increasing fluorescence after addition of the chloride (Cr) containing solution. Changes of fluorescence intensities were monitored on a plate reader. The effect on the kinetics of I— efflux was tested for Biochanin A (FIG. 6A), Trimethoxyisoflavone (FIG. 6B), 5,4-dimethoxy hydroxyisoflavone (FIG. 6C), Biochanin A-7-methyl ether (FIG. 6D), Biochanin A-7-acetate (FIG. 6E), Biochanin A diacetate (FIG. 6F), Biochanin A-7-pentanoate (FIG. 6G), Biochanin A dipentanoate (FIG. 6H), Biochanin A-7-pivalate (FIG. 7A), Biochanin A-dipavalate (FIG. 7B), Biochanin A-7-acrylate (FIG. 7C), Biochanin A diacrylate (FIG. 7D), Biochanin A-7-methyl fumarate (FIG. 7E), Biochanin A-di(methyl fumarate) (FIG. 7F), Biochanin A-7-butylcarbamate (FIG. 7G), Biochanin A di(butylcarbamate) (FIG. 7H), Biochanin A-7-phosphate disodium salt (FIG. 8A), Biochanin A-7-isopropylate (FIG. 8B), 7-pivaloxymethyl-Biochanin A (FIG. 8C), Biochanin A diisopropylate (FIG. 8D), Biochanin A-7-isopropyl carbonate (FIG. 8E), Biochanin A diisopropyl carbonate (FIG. 8F), Isopropyloxycarbonylmethoxy-Biochanin A (FIG. 8G).

Structure (SMILES): COc1ccc(-c2coc3cc(OC(C)=O)cc(OC(C)=O)c3c2=O)cc1 [Biochanin A diacetate, 3-(4-Methoxyphenyl)-4oxo-4H-chromene-5,7-diyl diacetate]
- anion transport activity (kinetics of I- efflux) in comparison to untreated cells: strongly increased
